Where a name gives a salt, the structure may show the parent alone.
Assay: in vitro
Conditions: rat, gh3-tre-luc cells

SMILES | CC50 at 24 h (AC50 (uM) modified / 1000) | other results
CNC(=O)Oc1c(C(C)(C)C)cc(C)cc1C(C)(C)C [Terbucarb] |  | CC50 at 24 h (AC50 (uM) modified / 1000, Tox21_110001=Tox21_302210, viability, 1 nM T3 present, 24 h): > 90 µM
CNC(C)Cc1ccccc1 (racemic) [dl-Methamphetamine hydrochloride] | > 90 µM | 
Cc1cc2c(OCC(CNC(C)(C)C)OC(=O)c3ccccc3)cccc2[nH]1 (stereo not shown) [Bopindolol] | 42.5 µM | 
COC(=O)CSc1cc(/N=c2\sc(=O)n3n2CCCC3)c(F)cc1Cl [Fluthiacet-methyl] | > 90 µM | 
CC(C)CCC(=O)CCC(C)C [2,8-Dimethylnonan-5-one] | > 90 µM | 
CCOC(=O)CC(C(C)=O)C(C)=O [Ethyl 3-acetyl-4-oxopentanoate] | > 90 µM | 
CCCCCCCCCCCCCCCCCCNC(=O)OC1CCN(C(=O)OC[C@H](COC(=O)N(Cc2cccc[n+]2CC)C(=O)c2ccccc2OC)OC)CC1 [Minopafant] | 13.6 µM | 
CCCCOCCOCCOCCO [2-[2-(2-Butoxyethoxy)ethoxy]ethanol] | > 90 µM | 
COc1ccc(C)cc1[N+](=O)[O-] [1-Methoxy-4-methyl-2-nitrobenzene] | > 90 µM | 
NC/C=C/C(=O)O [(E)-4-amino-2-butenoic acid] | > 50 µM | 
OC1OCCOC1O (stereo not shown) [1,4-Dioxane-2,3-diol] | > 90 µM | 
N#CC(Cl)Cl [Dichloroacetonitrile] | 72.9 µM | 
CN1CCN(C2=Nc3cc(Cl)ccc3Nc3ccccc32)CC1 [Clozapine] | 15.9 µM | 
Cn1c(N)nc2nc[nH]c2c1=O [1-Methylguanine] | > 90 µM | 
O=C(Nc1ccc2c(O)c(N=Nc3ccc(N=Nc4ccc(S(=O)(=O)O)cc4)cc3)c(S(=O)(=O)O)cc2c1)c1ccccc1 [C.I. Direct Red 81 disodium salt] | 35.6 µM | 
CCO[Si](CCC#N)(OCC)OCC [3-(Triethoxysilyl)propionitrile] | > 90 µM | 
CC(=O)Nc1ccccc1O [2-Acetamidophenol] | > 90 µM | 
Cc1cccc2sc3nncn3c12 [2,7,8,9-Tricyclazole] | > 90 µM | 
NC(=S)NNC(N)=S [2,5-Dithiobiurea] | > 90 µM | 
COC(C)(OC)OC [1,1,1-Trimethoxyethane] | > 90 µM | 
C[C@@H](Oc1ccc(CNC(=O)c2cccnc2Oc2ccc3c(c2)OCO3)c(F)c1)C(=O)O [CP-671305] | > 90 µM | 

SMILES | CC50 at 24 h (AC50 (uM) modified / 1000) | other results
CC(C)Nc1nc(N)nc(Cl)n1 [Deethylatrazine] | > 90 µM | 
NS(=O)(=O)c1cc2c(cc1Cl)NC(C1CC3C=CC1C3)NS2(=O)=O (stereo not shown) [Cyclothiazide] | > 50 µM | 
COP(=S)(OC)SCN1C(=O)c2ccccc2C1=O [Phosmet] |  | CC50 at 24 h (AC50 (uM) modified / 1000, Tox21_110001=Tox21_110993, viability, 1 nM T3 present, 24 h): > 50 µM; CC50 at 24 h (AC50 (uM) modified / 1000, Tox21_110001=Tox21_202316, viability, 1 nM T3 present, 24 h): > 90 µM
C=C[Si](OC(C)=O)(OC(C)=O)OC(C)=O [Ethenylsilanetriyl triacetate] | > 90 µM | 
c1ccc2[nH]nnc2c1 [1,2,3-Benzotriazole] | > 90 µM | 
O=S(=O)(O)C(F)(F)C(F)(F)C(F)(F)C(F)(F)C(F)(F)C(F)(F)F [Potassium perfluorohexanesulfonate] |  | CC50 at 24 h (AC50 (uM) modified / 1000, Tox21_110001=Tox21_300396, viability, 1 nM T3 present, 24 h): > 90 µM
CCC[Si](OC)(OC)OC [Trimethoxypropylsilane] | > 90 µM | 
CC(C)(CCC(=O)O)C(=O)O [2,2-Dimethylpentanedioic acid] | > 90 µM | 
NC12CC3CC(CC(C3)C1)C2 [Amantadine] | 36.1 µM | 
O=C(O)C1(C(=O)Nc2ccc(Cl)cc2Cl)CC1 [Cyclanilide] | > 90 µM | 
CCCCCCCC/C=C\CCCCCCCC(=O)N(CCO)CCO [(9Z)-N,N-Bis(2-hydroxyethyl)octadec-9-enamide] | 43.9 µM | 
CCCOC(=O)CCCCC(=O)OCCC [Dipropyl hexanedioate] | > 90 µM | 
CO/N=C(\C(=O)N[C@@H]1C(=O)N2C(C(=O)O)=C(Cn3ccc(=N)n3CCO)CS[C@H]12)c1csc(N)n1 [Cefoselis sulfate] | > 50 µM | 
CO[C@H]1O[C@H](CO)[C@@H](O)[C@H](O)[C@H]1O [Methyl alpha-D-glucopyranoside] | > 90 µM | 
CC(C)=CCC/C(C)=C/C=N/O [Citral oxime] | > 90 µM | 
Clc1nc(Cl)nc(Cl)n1 [2,4,6-Trichloro-s-triazine] |  | CC50 at 24 h (AC50 (uM) modified / 1000, Tox21_110001=Tox21_202449, viability, 1 nM T3 present, 24 h): > 90 µM
CNC(=O)CSP(=S)(OC)OC [Dimethoate] |  | CC50 at 24 h (AC50 (uM) modified / 1000, Tox21_110001=Tox21_202246, viability, 1 nM T3 present, 24 h): > 90 µM
CCCCCCCCCCCCCCCO [1-Pentadecanol] | > 90 µM | 
CN1[C@@H]2CC[C@H]1CC(OC1c3ccccc3CCc3ccccc31)C2 (stereo partly shown) [Deptropine citrate] | 12.2 µM | 
CC1CCCCC1NC(=O)Nc1ccccc1 (stereo not shown) [Siduron] | > 90 µM | 
CCC(CC)CO [2-Ethyl-1-butanol] | > 90 µM | 

SMILES | CC50 at 24 h (AC50 (uM) modified / 1000) | other results
CCCCCC1CCCC(=O)O1 (stereo not shown) [6-Pentyltetrahydro-2H-pyran-2-one] | > 90 µM | 
CCOc1ccc(OCC)c(Cl)c1 [2-Chloro-1,4-diethoxybenzene] | > 90 µM | 
CC(C)c1cccc(C(C)C)c1O [Propofol] | > 90 µM | 
Oc1c(I)cc(I)c2cccnc12 [Iodoquinol] | > 50 µM | 
CCC(COC(=O)CCS)(COC(=O)CCS)COC(=O)CCS [2,2-Bis{[(3-sulfanylpropanoyl)oxy]methyl}butyl 3-sulfanylpropanoate] | > 90 µM | 
COC(=O)CCC(=O)O [Monomethyl succinate] | > 90 µM | 
CC(Cl)Cl [1,1-Dichloroethane] |  | CC50 at 24 h (AC50 (uM) modified / 1000, Tox21_110001=Tox21_200205, viability, 1 nM T3 present, 24 h): > 90 µM
CC(=O)Oc1c(C)c(C)c2c(c1C)CC[C@@](C)(CCC[C@H](C)CCC[C@H](C)CCCC(C)C)O2 (racemic) [dl-alpha-Tocopheryl acetate] | > 90 µM | 
O=C(O)Cc1csc(-c2ccc(Cl)cc2)n1 [Fenclozic acid] | > 50 µM | 
ClC(Cl)(Cl)C(Cl)(Cl)Cl [Hexachloroethane] |  | CC50 at 24 h (AC50 (uM) modified / 1000, Tox21_110001=Tox21_200724, viability, 1 nM T3 present, 24 h): > 90 µM
OCCC(F)(F)C(F)(F)C(F)(F)C(F)(F)C(F)(F)C(F)(F)C(F)(F)C(F)(F)F [8:2 Fluorotelomer alcohol] | > 90 µM | 
C1CCCNCCC1 [Heptamethyleneimine] | > 90 µM | 
O=Cc1ccc(F)c(Br)c1 [3-Bromo-4-fluorobenzaldehyde] | > 90 µM | 
COc1ccc(Cl)cc1C [4-Chloro-2-methylanisole] | > 100 µM | 
Cc1ccc([N+](=O)[O-])cc1 [4-Nitrotoluene] |  | CC50 at 24 h (AC50 (uM) modified / 1000, Tox21_110001=Tox21_201464, viability, 1 nM T3 present, 24 h): > 90 µM
O=C/C=C/c1ccco1 [(E)-3-(2-Furyl)acrolein] |  | CC50 at 24 h (AC50 (uM) modified / 1000, Tox21_110001=Tox21_202896, viability, 1 nM T3 present, 24 h): > 90 µM
C=C(C#N)CCC#N [2-Methylenepentanedinitrile] | > 90 µM | 
CC(=O)Nc1ccc(CC(=O)O)cc1 [4-Acetylaminophenylacetic acid] | > 90 µM | 
CCOc1ccccc1N [2-Ethoxyaniline] | > 90 µM | 
C=CC(C)(CCC=C(C)C)OC(=O)c1ccccc1 (stereo not shown) [Linalyl benzoate] | 53.7 µM | 
CC1(C)CCC[C@]2(C)[C@H]3CC(=O)O[C@]3(C)CC[C@@H]12 [(3aR)-(+)-Sclareolide] | 64.9 µM | 

SMILES | CC50 at 24 h (AC50 (uM) modified / 1000) | other results
C=CCOC(=O)C(=C)C [Allyl methacrylate] | > 100 µM | 
COc1cc(C(=S)N2CCOCC2)ccc1O [Vanitiolide] | > 50 µM | 
C[N+](C)(C)CCOC(=O)C(O)(c1ccccc1)c1ccccc1 [Metocinium iodide] | > 50 µM | 
O=c1c(O)c(-c2ccc(O)c(O)c2)oc2cc(O)cc(O)c12 [Quercetin dihydrate] | 57 µM | 
[O-][n+]1ccccc1SSc1cccc[n+]1[O-] [Dipyrithione] | 0.205 µM | 
CC(=O)NC[C@H]1CN(c2ccc(N3CCOCC3)c(F)c2)C(=O)O1 [Linezolid] | > 50 µM | 
Cc1ccc2c(c1)[C@]13CCCC[C@@H]1[C@H](C2)N(C)CC3 [Dimemorfan phosphate] |  | CC50 at 24 h (AC50 (uM) modified / 1000, Tox21_110001=Tox21_113138, viability, 1 nM T3 present, 24 h): > 50 µM
O=Cc1cccc(Br)c1 [3-Bromobenzaldehyde] | > 90 µM | 
c1ccc(C2(N3CCCC3)CCCCC2)cc1 [Rolicyclidine] |  | CC50 at 24 h (AC50 (uM) modified / 1000, Tox21_110001=Tox21_111832, viability, 1 nM T3 present, 24 h): 14.9 µM
CC(C)(C)C(=O)C(Oc1ccc(Cl)cc1)n1cncn1 (stereo not shown) [Triadimefon] | > 90 µM | 
Nc1ccc(S(=O)(=O)Nc2ccccn2)cc1 [Sulfapyridine] | > 20 µM | 
O=C(CCCN1CCC(O)(c2cccc(C(F)(F)F)c2)CC1)c1ccc(F)cc1 [Trifluperidol hydrochloride] | 24 µM | 
CC(=O)SCc1ccco1 [S-Furfuryl thioacetate] | > 90 µM | 
CCCSSCCC [Dipropyl disulfide] | > 90 µM | 
CN(C)CCOCCN(C)CCO [2-[{2-[2-(Dimethylamino)ethoxy]ethyl}(methyl)amino]ethanol] | > 90 µM | 
CCCC[C@H](CC)COC(=O)/C=C/c1ccc(OC)cc1 [Octinoxate] | > 90 µM | 
COCc1c(C(C)C)nc(C(C)C)c(/C=C/[C@@H](O)C[C@@H](O)CC(=O)O)c1-c1ccc(F)cc1 [Cerivastatin sodium] | > 50 µM | 
CC(C)C#N [2-Methylpropanenitrile] |  | CC50 at 24 h (AC50 (uM) modified / 1000, Tox21_110001=Tox21_201929, viability, 1 nM T3 present, 24 h): > 90 µM

Reference: publication PMC6792352, “Limited Chemical Structural Diversity Found to Modulate Thyroid Hormone Receptor in the Tox21 Chemical Library” (Environmental Health Perspectives, 2019)
